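Briefly, cells in 96-well plates were exposed to five compound concentrations for 48 h, and endpoints were estimated by linear interpolation. Abbreviation: GI50, concentration required for 50% inhibition of growth.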 The source made the active and inactive calls. Rule as the data show it: active = GI50 up to about 1.1 µM and inactive = higher.
Key:
Test in all cases: inhibition of tumour cell growth, NCI panel, 48 h
UO-31 = test system: UO-31
RXF 393 = test system: RXF 393
HT-29 = test system: HT-29
SF-295 = test system: SF-295
COLO 205 = test system: COLO 205
Malme-3M = test system: Malme-3M
NCI-H460 = test system: NCI-H460
SF-268 = test system: SF-268
LOX IMVI = test system: LOX IMVI
HCC 2998 = test system: HCC 2998
OVCAR-8 = test system: OVCAR-8
M19-MEL = test system: M19-MEL
CAKI-1 = test system: CAKI-1
SNB-19 = test system: SNB-19
HL-60 = test system: HL-60
UACC-257 = test system: UACC-257
K562 = test system: K562
SK-MEL-28 = test system: SK-MEL-28
IGROV-1 = test system: IGROV-1
OVCAR-4 = test system: OVCAR-4
OVCAR-5 = test system: OVCAR-5
TK-10 = test system: TK-10
A549 = test system: A549
KM-20L2 = test system: KM-20L2
RPMI-8226 = test system: RPMI-8226
EKVX = test system: EKVX
SK-MEL-5 = test system: SK-MEL-5
NCI-H226 = test system: NCI-H226
A498 = test system: A498
SW-620 = test system: SW-620
KM12 = test system: KM12
SNB-78 = test system: SNB-78
SK-OV-3 = test system: SK-OV-3
CCRF-CEM = test system: CCRF-CEM
HCT-116 = test system: HCT-116
SNB-75 = test system: SNB-75
NCI-H522 = test system: NCI-H522
RXF 631 = test system: RXF 631
HOP-62 = test system: HOP-62
UACC-62 = test system: UACC-62
HOP-18 = test system: HOP-18
OVCAR-3 = test system: OVCAR-3
NCI-H23 = test system: NCI-H23
ACHN = test system: ACHN
LXFL 529 = test system: LXFL 529
U-251 = test system: U-251
SF-539 = test system: SF-539
SN12C = test system: SN12C
HOP-92 = test system: HOP-92
SR = test system: SR
MOLT-4 = test system: MOLT-4
786-0 = test system: 786-0
DLD-1 = test system: DLD-1
M14 = test system: M14
HCT-15 = test system: HCT-15
T47D = test system: T47D
MDA-N = test system: MDA-N
DMS-114 = test system: DMS-114
SK-MEL-2 = test system: SK-MEL-2
BT-549 = test system: BT-549
MDA-MB-435 = test system: MDA-MB-435
MCF7 = test system: MCF7
MDA-MB-231 = test system: MDA-MB-231
NCI/ADR-RES = test system: NCI/ADR-RES
DMS-273 = test system: DMS-273
Hs-578T = test system: Hs-578T
DU-145 = test system: DU-145
XF498 = test system: XF498
PC-3 = test system: PC-3

For `CCOC(=O)C1=NC(c2ccccc2)(c2ccccc2)OC1=C(Cl)Cl`, the GI50 (UO-31) was 65 µM (inactive), the GI50 (RXF 393) was 0.879 µM (active) and the GI50 (HT-29) was 32.4 µM (inactive). For the same compound, the GI50 (SF-295) was > 100 µM (inactive), the GI50 (COLO 205) was > 100 µM (inactive) and the GI50 (Malme-3M) was 40 µM (inactive). For the same compound, the GI50 (NCI-H460) was 70.6 µM (inactive), the GI50 (SF-268) was > 100 µM (inactive) and the GI50 (LOX IMVI) was 46 µM (inactive). The GI50 (HCC 2998) was 18.5 µM (inactive), the GI50 (OVCAR-8) was > 100 µM (inactive) and the GI50 (M19-MEL) was 29 µM (inactive). For the same compound, the GI50 (CAKI-1) was > 100 µM (inactive), the GI50 (SNB-19) was > 100 µM (inactive) and the GI50 (HL-60) was 11.9 µM (inactive). The GI50 (UACC-257) was 32.4 µM (inactive), the GI50 (K562) was 32 µM (inactive) and the GI50 (SK-MEL-28) was > 100 µM (inactive). For the same compound, the GI50 (IGROV-1) was > 100 µM (inactive), the GI50 (OVCAR-4) was 63 µM (inactive) and the GI50 (OVCAR-5) was 96.2 µM (inactive). The GI50 (TK-10) was > 100 µM (inactive), the GI50 (A549) was 54.6 µM (inactive) and the GI50 (KM-20L2) was 49.3 µM (inactive). For the same compound, the GI50 (RPMI-8226) was 19.1 µM (inactive), the GI50 (EKVX) was 35.5 µM (inactive) and the GI50 (SK-MEL-5) was 39.5 µM (inactive). The GI50 (NCI-H226) was > 100 µM (inactive), the GI50 (A498) was > 100 µM (inactive) and the GI50 (SW-620) was 82.4 µM (inactive). The GI50 (KM12) was 94 µM (inactive), the GI50 (SNB-78) was 96.4 µM (inactive) and the GI50 (SK-OV-3) was > 100 µM (inactive). For the same compound, the GI50 (CCRF-CEM) was 33.6 µM (inactive), the GI50 (HCT-116) was 29.2 µM (inactive) and the GI50 (SNB-75) was > 100 µM (inactive). The GI50 (NCI-H522) was 23.1 µM (inactive), the GI50 (RXF 631) was 50.9 µM (inactive) and the GI50 (HOP-62) was > 100 µM (inactive). The GI50 (UACC-62) was 99.8 µM (inactive), the GI50 (HOP-18) was > 100 µM (inactive) and the GI50 (OVCAR-3) was 42.2 µM (inactive). For the same compound, the GI50 (NCI-H23) was > 100 µM (inactive), the GI50 (ACHN) was 50.4 µM (inactive) and the GI50 (LXFL 529) was 65.5 µM (inactive). For the same compound, the GI50 (U-251) was 74.6 µM (inactive), the GI50 (SF-539) was > 100 µM (inactive) and the GI50 (SN12C) was > 100 µM (inactive). For the same compound, the GI50 (HOP-92) was 35.4 µM (inactive), the GI50 (SR) was 19.8 µM (inactive) and the GI50 (MOLT-4) was 36 µM (inactive). For the same compound, the GI50 (786-0) was > 100 µM (inactive), the GI50 (DLD-1) was 80.7 µM (inactive) and the GI50 (M14) was 85.9 µM (inactive). For the same compound, the GI50 (HCT-15) was 70.1 µM.

For `N=C(N)SCc1cccc2c(=O)cc(-c3ccccc3)oc12`, the GI50 (UO-31) was 2.84 µM (inactive), the GI50 (RXF 393) was 4.79 µM (inactive) and the GI50 (HT-29) was 4.84 µM (inactive). The GI50 (SF-295) was 11.4 µM (inactive), the GI50 (T47D) was 3.75 µM (inactive) and the GI50 (COLO 205) was 3.78 µM (inactive). The GI50 (Malme-3M) was 10.8 µM (inactive), the GI50 (NCI-H460) was 4.72 µM (inactive) and the GI50 (SF-268) was 12.4 µM (inactive). The GI50 (MDA-N) was 6.53 µM (inactive), the GI50 (LOX IMVI) was 12.2 µM (inactive) and the GI50 (HCC 2998) was 12 µM (inactive). For the same compound, the GI50 (OVCAR-8) was 4.5 µM (inactive), the GI50 (M19-MEL) was 13.2 µM (inactive) and the GI50 (CAKI-1) was 3.94 µM (inactive). For the same compound, the GI50 (SNB-19) was 23.9 µM (inactive), the GI50 (HL-60) was 3.18 µM (inactive) and the GI50 (UACC-257) was 10.9 µM (inactive). For the same compound, the GI50 (K562) was 5.35 µM (inactive), the GI50 (SK-MEL-28) was 4.43 µM (inactive) and the GI50 (IGROV-1) was 6.32 µM (inactive). For the same compound, the GI50 (OVCAR-4) was 7.24 µM (inactive), the GI50 (OVCAR-5) was 16.5 µM (inactive) and the GI50 (TK-10) was 7.57 µM (inactive). The GI50 (DMS-114) was 6.47 µM (inactive), the GI50 (A549) was 7.62 µM (inactive) and the GI50 (KM-20L2) was 6.24 µM (inactive). For the same compound, the GI50 (RPMI-8226) was 2.54 µM (inactive), the GI50 (EKVX) was 8.75 µM (inactive) and the GI50 (SK-MEL-5) was 11.1 µM (inactive). The GI50 (NCI-H226) was 15.9 µM (inactive), the GI50 (SK-MEL-2) was 5.56 µM (inactive) and the GI50 (A498) was 9.27 µM (inactive). For the same compound, the GI50 (BT-549) was 13.2 µM (inactive), the GI50 (MDA-MB-435) was 8.02 µM (inactive) and the GI50 (SW-620) was 4.37 µM (inactive). The GI50 (KM12) was 9.29 µM (inactive), the GI50 (MCF7) was 2.73 µM (inactive) and the GI50 (MDA-MB-231) was 6.41 µM (inactive). The GI50 (SNB-78) was 6.32 µM (inactive), the GI50 (SK-OV-3) was 12.8 µM (inactive) and the GI50 (CCRF-CEM) was 3.87 µM (inactive). For the same compound, the GI50 (HCT-116) was 4.73 µM (inactive), the GI50 (SNB-75) was 5.41 µM (inactive) and the GI50 (NCI-H522) was 3.87 µM (inactive). For the same compound, the GI50 (NCI/ADR-RES) was 22 µM (inactive), the GI50 (RXF 631) was 9.95 µM (inactive) and the GI50 (HOP-62) was 10.8 µM (inactive). The GI50 (UACC-62) was 12.7 µM (inactive), the GI50 (DMS-273) was 7.14 µM (inactive) and the GI50 (OVCAR-3) was 6.97 µM (inactive). The GI50 (NCI-H23) was 5.58 µM (inactive), the GI50 (ACHN) was 3.53 µM (inactive) and the GI50 (U-251) was 7.66 µM (inactive). For the same compound, the GI50 (Hs-578T) was 16.2 µM (inactive), the GI50 (SF-539) was 7.26 µM (inactive) and the GI50 (SN12C) was 6.19 µM (inactive). For the same compound, the GI50 (HOP-92) was 4.03 µM (inactive), the GI50 (DU-145) was 4.93 µM (inactive) and the GI50 (SR) was 4.05 µM (inactive). For the same compound, the GI50 (MOLT-4) was 2.68 µM (inactive), the GI50 (XF498) was 5.87 µM (inactive) and the GI50 (786-0) was 3.9 µM (inactive). For the same compound, the GI50 (DLD-1) was 7.59 µM (inactive), the GI50 (M14) was 5.28 µM (inactive) and the GI50 (PC-3) was 4.54 µM (inactive). The GI50 (HCT-15) was 10.5 µM.
